This is an account of results in patent publication US20230321253A1, “BIFUNCTIONAL COMPOUNDS AND PHARMACEUTICAL USES THEREOF” (RISEN (SUZHOU) PHARMA TECH CO., LTD., priority 2022, published 2023).

T1 sequence (P01116 1-188 isoform P01116-2 G12D): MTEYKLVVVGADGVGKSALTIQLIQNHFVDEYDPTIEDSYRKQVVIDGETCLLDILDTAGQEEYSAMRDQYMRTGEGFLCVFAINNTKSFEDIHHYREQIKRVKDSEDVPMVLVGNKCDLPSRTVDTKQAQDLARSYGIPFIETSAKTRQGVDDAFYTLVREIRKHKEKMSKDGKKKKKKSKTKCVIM

The first assay concerns the target T1, KRAS-G12D protein (Homo sapiens, UniProt P01116, G12D).
T1 construct: host or cells: Aspc-1 cells
Briefly: KRAS-G12D protein degradation study in Aspc-1 cells (western blot). Particulars: ASPC1, 24 h, Aspc-1 cells treated with 50 nM compound, 24 hours; read-out: Rate of degradation (KRAS^G12D). The class given is cell-based. The protocol: Aspc-1 (Cobioer, CBP60546) cells in exponential growth phase were inoculated on a 6-well cell culture plate (Corning, 3516) at density of 1E6/well; and cells in the plate were cultured in 37° C. incubator containing 5% carbon dioxide. The next day, test compounds were dissolved in DMSO (Sigma, RNBF5902) for the preparation of a 10 mM concentration stock solution. The stock solution was diluted with complete medium (RPMI-1640 supplemented with 10% fetal bovine serum, 1% penicillin-streptomycin), yielding working solutions of various concentrations. The plate, after the addition of compounds, was placed in a 5% carbon dioxide incubator, and incubated at 37° C. for 24 hours (final DMSO concentration was 0.1%). The plate was then removed from the incubator, and the cells were washed twice with precooled PBS (Gibco, 14190250), followed by addition of 80 μL RIPA lysis buffer (containing protease inhibitor (Invitrogen™, AM2696)) to each well. The adherent cells were scraped off with a cell scraper, and the cell lysate was transferred to a 1.5 mL centrifuge tube followed with a 30-minute incubation on ice. The lysate was then clarified with centrifugation at 14000 rpm for 10 min at 4° C. The supernatant was transferred into a new 1.5 mL centrifuge tube, and protein concentration was measured with BCA protein detection kit (Thermo Fisher, 23225). KRAS-G12D protein level was assessed by western blot.
A mixture of cell lysate (40 μL) and loading buffer (10 μL 5×SDS (Beyotime, P0015L)) was denatured in a water bath at 95° C. for 10 min. The denatured protein sample, at 30 μL/well, was loaded into the corresponding well of a 4-20% Bis-Tris gel (Kingsley, M00656). Protein samples were initially electrophoresed at 80 V for 30 minutes, followed by 120 V for 40 minutes, until the bromophenol blue strip ran to an appropriate position. After electrophoresis, iBlot2 (Life Technologies, IB21001) was used to transfer the separated samples onto PVDF film. The PVDF membrane was washed with double-distilled water and then blocked in TBST (Thermo Scientific, 28360) buffer containing 5% non-fat milk, for 2 hours. Blocked membrane was rinsed with tris-buffered saline tween-20 (Thermo Scientific, 28360, TBST) three times, 10 minutes each. Membrane was then incubated with 1:1000 diluted KRAS primary antibody (CST, cat #14429S) overnight at 4° C. Membrane was rinsed as described previously followed by 1 hour incubation of secondary antibody at room temperature. After washing the film three times with TBST, ECL color developing solution was applied, and image was captured with Biorad Chemi Doc gel imager. The band gray value was quantified (Image Lab), and protein degradation level was calculated according to the following formula:
Level of RAS protein expression=(RAS-compound/GAPDH)/(RAS-DMSO/GAPDH)
Level of degradation (%)=(1−Rate of RAS protein expression)×100
The symbols “−”, “+”, “++”, and “+++” indicate that the degradation level of KRAS^G12D protein induced by the test compounds was 10% or less, 11 to 30%, 31 to 60%, and greater than 60%, respectively.
Half-maximum degradation concentrations (DC50s) of exemplary test compounds were calculated using GraphPad Prism and their values are shown in Table 6. The symbols “++++”, “+++”, “++” and “+” indicate DC50 equal or less than 10 nM, 11-50 nM, 51-100 nM, and 101-200 nM, respectively.
Background: In western blotting, separated proteins are transferred to a membrane and probed.
For the compound `C#Cc1c(F)ccc2cc(O)cc(-c3ncc4c(N5CC6CCC(C5)N6)nc(OCC5(CN6CCN(c7ccc(NC8CCC(=O)NC8=O)cc7F)CC6)CC5)nc4c3F)c12` (stereo not drawn) [Compound 124], the inhibition at 0.05 µM was 11 to 30%. Same read-out and setting: in the case of `C#Cc1c(F)ccc2cc(O)cc(-c3ncc4c(N5CC6CCC(C5)N6)nc(OCC5(CN6CCC7(CCN(c8ccc(NC9CCC(=O)NC9=O)cc8F)CC7)C6)CC5)nc4c3F)c12` (stereo not drawn) [Compound 125] it was 31 to 60%; in that of `C#Cc1c(F)ccc2cc(O)cc(-c3ncc4c(N5CC6CCC(C5)N6)nc(OCC5(CN6CCN(C(=O)CN7CCN(c8ccc(C(=O)NC9CCC(=O)NC9=O)nc8)CC7)CC6)CC5)nc4c3F)c12` (stereo not drawn) [Compound 126], at most 10%; in that of `C#Cc1c(F)ccc2cc(O)cc(-c3ncc4c(N5CC6CCC(C5)N6)nc(OCC5(CN6CCC7(CC6)CCN(c6ccc8c(c6)C(=O)N(C6CCC(=O)NC6=O)C8=O)CC7)CC5)nc4c3F)c12` (stereo not drawn) [Compound 127], above 60%. Turning to `Cn1nc(C2CCC(=O)NC2=O)c2ccc(C3CCN(CC(=O)N4CCN(CC5(COc6nc(N7CC8CCC(C7)N8)c7cnc(-c8cc(N)cc(Cl)c8C(F)(F)F)c(F)c7n6)CC5)CC4)CC3)cc21` (stereo not drawn) [Compound 128], the inhibition at 0.05 µM was above 60%. The same measure, in the same setting: in the case of `C#Cc1c(F)ccc2cc(O)cc(-c3ncc4c(N5CC6CCC(C5)N6)nc(OCC5(CN6CC(CN7CCN(c8ccc(C(=O)NC9CCC(=O)NC9=O)nc8)CC7)C6)CC5)nc4c3F)c12` (stereo not drawn) [Compound 134] it was 11 to 30%; in that of `C#Cc1c(F)ccc2cc(O)cc(-c3ncc4c(N5CC6CCC(C5)N6)nc(OCC5(CN6CCC(CN7CCN(c8ccc(C(=O)NC9CCC(=O)NC9=O)nc8)CC7)CC6)CC5)nc4c3F)c12` (stereo not drawn) [Compound 136], at most 10%.

Staying with this assay, now noted: ASPC1, 24 h, Aspc-1 cells treated with 0.1 μM compound, 24 hours; read-out: Rate of protein degradation (KRAS^G12D).
`C#Cc1c(F)ccc2cc(O)cc(-c3ncc4c(N5CC6CCC(C5)N6)nc(OC5CCN(CC(=O)N6CCC7(CC6)CC(N6CCC(c8ccc(NC9CCC(=O)NC9=O)cc8F)CC6)C7)CC5)nc4c3F)c12` (stereo not drawn) [Compound 114]: the inhibition at 0.1 µM was above 60%.

Turning to `C#Cc1c(F)ccc2cc(O)cc(-c3ncc4c(N5CC6CCC(C5)N6)nc(OCC5(CN6CCN(CC7CCN(c8ccc9c(c8)C(=O)N(C8CCC(=O)NC8=O)C9=O)CC7)CC6)CC5)nc4c3F)c12` (stereo not drawn) [Compound 115], the inhibition at 0.1 µM lay in the range of 31 to 60%. The same measure, in the same setting: in the case of `C#Cc1c(F)ccc2cc(O)cc(-c3ncc4c(N5CC6CCC(C5)N6)nc(OCC5(CN6CCN(C(=O)CN7CCN(c8ccc9c(c8)C(=O)N(C8CCC(=O)NC8=O)C9=O)CC7)CC6)CC5)nc4c3F)c12` (stereo not drawn) [Compound 116] it was 31 to 60%; in that of `C#Cc1c(F)ccc2cc(O)cc(-c3ncc4c(N5CC6CCC(C5)N6)nc(OCC5(CN6CCN(c7ccc8c(c7)C(=O)N(C7CCC(=O)NC7=O)C8=O)CC6)CC5)nc4c3F)c12` (stereo not drawn) [Compound 117], above 60%. The same measure, in the same setting: in the case of `C#Cc1c(F)ccc2cc(O)cc(-c3ncc4c(N5CC6CCC(C5)N6)nc(OCC5(CN6CCN(C7CC(C(=O)N8CCC(c9ccc%10c(C%11CCC(=O)NC%11=O)nn(C)c%10c9)CC8)C7)CC6)CC5)nc4c3F)c12` (stereo not drawn) [Compound 118] it was above 60%. Still for that read-out and setting: in the case of `C#Cc1c(F)ccc2cc(O)cc(-c3ncc4c(N5CC6CCC(C5)N6)nc(OC5CCN(CCCCCCOc6cc(-c7scnc7C)ccc6CNC(=O)[C@@H]6C[C@@H](O)CN6C(=O)[C@@H](NC(=O)C6(F)CC6)C(C)(C)C)CC5)nc4c3F)c12` [Compound 131] it was at most 10%; in that of `C#Cc1c(F)ccc2cc(O)cc(-c3ncc4c(N5CC6CCC(C5)N6)nc(OCCN5CCN(C(=O)CCCCCOc6cc(-c7scnc7C)ccc6CNC(=O)[C@@H]6C[C@@H](O)CN6C(=O)[C@@H](NC(=O)C6(F)CC6)C(C)(C)C)CC5)nc4c3F)c12` [Compound 132], 11 to 30%.

The assay is the same for the next values; noted with them: Aspc-1 cells treated with 0.1 μM compound, 24 hours.
For `C#Cc1c(F)ccc2cc(O)cc(-c3ncc4c(N5CC6CCC(C5)N6)nc(OCC5(CN6CCN(C(=O)CN7CCC(c8ccc9c(C%10CCC(=O)NC%10=O)nn(C)c9c8)CC7)CC6)CC5)nc4c3F)c12` (stereo not drawn) [Compound 119], the “Rate of protein degradation (KRAS^G12D)” value is reported as “+ (11 to 30%)”.

The assay is the same for the next values; noted with them: Aspc-1 cells; read-out: DC50 of test compound-induced KRAS^G12D protein degradation.
In general, DC50 refers to the midpoint of the concentration-degradation curve. As to `C#Cc1c(F)ccc2cc(O)cc(-c3ncc4c(N5CC6CCC(C5)N6)nc(OC5CCN(CC(=O)N6CCC7(CC6)CC(N6CCC(c8ccc(NC9CCC(=O)NC9=O)cc8F)CC6)C7)CC5)nc4c3F)c12` (stereo not drawn) [Compound 114], the DC50 was below 10 nM.

Turning to `C#Cc1c(F)ccc2cc(O)cc(-c3ncc4c(N5CC6CCC(C5)N6)nc(OCC5(CN6CCN(CC7CCN(c8ccc9c(c8)C(=O)N(C8CCC(=O)NC8=O)C9=O)CC7)CC6)CC5)nc4c3F)c12` (stereo not drawn) [Compound 115], the DC50 was in the range of 11 to 50 nM.

Take `C#Cc1c(F)ccc2cc(O)cc(-c3ncc4c(N5CC6CCC(C5)N6)nc(OCC5(CN6CCN(C7CC(C(=O)N8CCC(c9ccc%10c(C%11CCC(=O)NC%11=O)nn(C)c%10c9)CC8)C7)CC6)CC5)nc4c3F)c12` (stereo not drawn) [Compound 118]: the DC50 was below 10 nM.
